Results on 78 compounds are retold here after patent US7186831B2, “5-halo-2-alkyl[1,2,4]triazolo[1,5-a]pyrimidin-7-amines” (priority 2001, dated 2007).

One data set is described as follows: log P by HPLC. As to conditions: EEC directive 79/831 Annex V. A8 by HPLC (gradient method, acetonitrile/0.1% aqueous phosphoric acid). The data set is classed as physicochemical.
As a reminder, the logP is the decadic logarithm of the partition coefficient of the neutral form, usually between octanol and water. `Cc1nc2nc(Cl)c(-c3c(F)cccc3Cl)c(N3CCSCC3)n2n1` [compound 259] gave a logP of 3.18.
Still for that read-out and setting: with `Cc1nc2nc(Cl)c(-c3c(F)cccc3Cl)c(NCC(F)(F)F)n2n1` [compound 260] the figure was 2.77; with `Cc1nc2nc(Cl)c(-c3c(F)cccc3Cl)c(N3CCC(C(F)(F)F)CC3)n2n1` [compound 261], 3.72; with `Cc1nc2nc(Cl)c(-c3c(F)cccc3Cl)c(N3CCC(C)CC3)n2n1` [compound 262], 3.99.
On the same count and under the same terms, for `Cc1nc2nc(Cl)c(-c3c(F)cccc3Cl)c(NCC3CC3)n2n1` [compound 263] the value was 2.95; for `CCC(C)Nc1c(-c2c(F)cccc2Cl)c(Cl)nc2nc(C)nn12` (stereo not drawn) [compound 264], 3.14; for `Cc1nc2nc(Cl)c(-c3c(F)cccc3Cl)c(N3CC=CCC3)n2n1` [compound 265], 3.33.
In turn, `Cc1nc2nc(Cl)c(-c3c(F)cccc3Cl)c(N3CCC(F)CC3)n2n1` [compound 266] came in with a log partition coefficient (logP) of 3.07.
Same read-out and setting: for `C=CCN(CC)c1c(-c2c(F)cccc2Cl)c(Cl)nc2nc(C)nn12` [compound 267] the value was 3.59; for `CCN(CC1CCCO1)c1c(-c2c(F)cccc2Cl)c(Cl)nc2nc(C)nn12` (stereo not drawn) [compound 268], 3.29.
For `CCN(CCOC)c1c(-c2c(F)cccc2Cl)c(Cl)nc2nc(C)nn12` [compound 269], the logP was 3.03.
On the same count and under the same terms, with `CCOC(=O)CN(CC)c1c(-c2c(F)cccc2Cl)c(Cl)nc2nc(C)nn12` [compound 270] the figure was 3.14; with `C#CCN(C)c1c(-c2c(F)cccc2Cl)c(Cl)nc2nc(C)nn12` [compound 271], 2.77.
Consider `CCOC(=O)CN(C)c1c(-c2c(F)cccc2Cl)c(Cl)nc2nc(C)nn12` [compound 272], for which the logP is 2.48.
As for `C=CCN(C)c1c(-c2c(F)cccc2Cl)c(Cl)nc2nc(C)nn12` [compound 273], the logP is recorded as 3.26.
For `Cc1nc2nc(Cl)c(-c3c(F)cccc3Cl)c(N(C)Cc3ccco3)n2n1` [compound 274], the log partition coefficient (logP) is on record as 3.26.
Compound `C=C(C)CN(C)c1c(-c2c(F)cccc2Cl)c(Cl)nc2nc(C)nn12` [compound 275] displayed a lipophilicity (logP) of 3.63.
Same read-out and setting: with `Cc1nc2nc(Cl)c(-c3c(F)cccc3Cl)c(N(C)CC(C)C)n2n1` [compound 276] the figure was 3.68.
Regarding `CCCN(CC1CCCO1)c1c(-c2c(F)cccc2Cl)c(Cl)nc2nc(C)nn12` (stereo not drawn) [compound 277], the logP worked out at 3.72.
Regarding `Cc1nc2nc(Cl)c(-c3c(F)cccc3Cl)c(N3CCC(O)C3)n2n1` (stereo not drawn) [compound 278], the logP was found to be 2.02.
Same read-out and setting: with `Cc1nc2nc(Cl)c(-c3ccc(F)cc3F)c(N3CCCC3C)n2n1` (stereo not drawn) [compound 280] the figure was 3.14.
`Cc1nc2nc(Cl)c(-c3ccc(F)cc3F)c(N3CCCC3)n2n1` [compound 281] gave a logP of 2.74.
`Cc1nc2nc(Cl)c(-c3ccc(F)cc3F)c(N3CCC(O)CC3)n2n1` [compound 282] showed a log partition coefficient (logP) of 1.9.
In turn, `Cc1nc2nc(Cl)c(-c3ccc(F)cc3F)c(N3CC=CCC3)n2n1` [compound 283] showed a lipophilicity (logP) of 3.11.

Staying with this data set, now noted: HPLC, gradient method, acetonitrile/0.1% aqueous phosphoric acid; EEC directive 79/831 Annex V. A8.
In the case of `Cc1nc2nc(Cl)c(-c3ccc(F)cc3F)c(N(C)CC(C)C)n2n1` [compound 205], the logP is 3.49.
In turn, `C=C(C)CN(C)c1c(-c2ccc(F)cc2F)c(Cl)nc2nc(C)nn12` [compound 206] registered a logP of 3.41.
On the same count and under the same terms, for `C=CCN(CC)c1c(-c2ccc(F)cc2F)c(Cl)nc2nc(C)nn12` [compound 207] the value was 3.35; for `CCN(CC1CCCO1)c1c(-c2ccc(F)cc2F)c(Cl)nc2nc(C)nn12` (stereo not drawn) [compound 208], 3.18; for `CCCN(CCOC)c1c(-c2ccc(F)cc2F)c(Cl)nc2nc(C)nn12` [compound 209], 3.26.
The same measure, in the same setting: with `Cc1nc2nc(Cl)c(-c3ccccc3Cl)c(NCC(C)C)n2n1` [compound 210] the figure was 3.1.
`Cc1nc2nc(Cl)c(-c3ccccc3Cl)c(NCC(C)(C)C)n2n1` [compound 211] displayed a logP of 3.57.
Same read-out and setting: with `CCC(C)Nc1c(-c2ccccc2Cl)c(Cl)nc2nc(C)nn12` (stereo not drawn) [compound 212] the figure was 3.09.
Still for that read-out and setting: with `Cc1nc2nc(Cl)c(-c3ccccc3Cl)c(NC3CCCC3)n2n1` [compound 213] the figure was 3.28; with `Cc1nc2nc(Cl)c(-c3ccccc3Cl)c(NC(C)C)n2n1` [compound 214], 2.75.
Still for that read-out and setting: with `Cc1nc2nc(Cl)c(-c3ccccc3Cl)c(NC3CC3)n2n1` [compound 215] the figure was 2.54; with `Cc1nc2nc(Cl)c(-c3ccccc3Cl)c(NCC3CC3)n2n1` [compound 216], 2.85.
In turn, `C=C(C)CNc1c(-c2ccccc2Cl)c(Cl)nc2nc(C)nn12` [compound 217] registered a log partition coefficient (logP) of 2.83.
On the same count and under the same terms, for `Cc1nc2nc(Cl)c(-c3ccccc3Cl)c(NC(C)CC(C)C)n2n1` (stereo not drawn) [compound 218] the value was 3.84.
Still for that read-out and setting: for `Cc1nc2nc(Cl)c(-c3ccccc3Cl)c(N(C)CC3OCCO3)n2n1` [compound 219] the value was 2.62; for `C=CCN(C)c1c(-c2ccccc2Cl)c(Cl)nc2nc(C)nn12` [compound 220], 3.19; for `Cc1nc2nc(Cl)c(-c3ccccc3Cl)c(N(C)CC(C)C)n2n1` [compound 221], 3.65.
Same read-out and setting: with `COCCN(C)c1c(-c2ccccc2Cl)c(Cl)nc2nc(C)nn12` [compound 222] the figure was 2.64; with `C=C(C)CN(C)c1c(-c2ccccc2Cl)c(Cl)nc2nc(C)nn12` [compound 223], 3.57.
In the case of `C=CCN(CC)c1c(-c2ccccc2Cl)c(Cl)nc2nc(C)nn12` [compound 224], the log partition coefficient (logP) is 3.5.
Same read-out and setting: with `CCN(CCOC)c1c(-c2ccccc2Cl)c(Cl)nc2nc(C)nn12` [compound 225] the figure was 2.94; with `Cc1nc2nc(Cl)c(-c3ccccc3Cl)c(N3CCCC3C)n2n1` (stereo not drawn) [compound 226], 3.27.
As to `Cc1nc2nc(Cl)c(-c3ccccc3Cl)c(N3CCCC3)n2n1` [compound 227], the logP was 0.75.
Turning to `Cc1nc2nc(Cl)c(-c3ccccc3Cl)c(N3CC=CCC3)n2n1` [compound 228], the logP was found to be 0.75.
In turn, `Cc1nc2nc(Cl)c(-c3ccccc3Cl)c(N3CCCC(C)C3)n2n1` (stereo not drawn) [compound 229] had a log partition coefficient (logP) of 3.92.
For the compound `Cc1nc2nc(Cl)c(-c3ccccc3Cl)c(N3CCC(C)CC3)n2n1` [compound 230], the log partition coefficient (logP) is reported as 3.94.
Still for that read-out and setting: for `CC1=CCCN(c2c(-c3ccccc3Cl)c(Cl)nc3nc(C)nn23)C1` [compound 231] the value was 3.7.
Same read-out and setting: for `Cc1nc2nc(Cl)c(-c3ccccc3Cl)c(N3CCC(C(F)(F)F)CC3)n2n1` [compound 232] the value was 3.63; for `Cc1nc2nc(Cl)c(-c3ccccc3Cl)c(N3CCCCC3)n2n1` [compound 233], 3.48.
Same read-out and setting: with `Cc1nc2nc(Cl)c(-c3ccccc3Cl)c(N3CCOCC3)n2n1` [compound 234] the figure was 2.38; with `Cc1nc2nc(Cl)c(-c3ccccc3Cl)c(N3CCSCC3)n2n1` [compound 235], 3.09; with `COCCNc1c(-c2ccccc2Cl)c(Cl)nc2nc(C)nn12` [compound 236], 2.3.
As to `C#CCN(C)c1c(-c2ccccc2Cl)c(Cl)nc2nc(C)nn12` [compound 237], the lipophilicity (logP) is 2.75.
The compound `Cc1nc2nc(Cl)c(-c3ccccc3Cl)c(N(C)Cc3ccco3)n2n1` [compound 238] returned a log partition coefficient (logP) of 3.2.
`CCN(CC1CCCO1)c1c(-c2ccccc2Cl)c(Cl)nc2nc(C)nn12` (stereo not drawn) [compound 239] showed a log partition coefficient (logP) of 3.23.
`CCOC(=O)CN(CC)c1c(-c2ccccc2Cl)c(Cl)nc2nc(C)nn12` [compound 240] yielded a logP of 3.11.
Compound `CCCCN(CC)c1c(-c2ccccc2Cl)c(Cl)nc2nc(C)nn12` [compound 241] came in with a log partition coefficient (logP) of 4.1.
On the same count and under the same terms, for `CCN(CC)c1c(-c2ccccc2Cl)c(Cl)nc2nc(C)nn12` [compound 242] the value was 3.24; for `CCCN(CC1CC1)c1c(-c2ccccc2Cl)c(Cl)nc2nc(C)nn12` [compound 243], 4.07.
The same measure, in the same setting: with `CCCN(CC1CCCO1)c1c(-c2ccccc2Cl)c(Cl)nc2nc(C)nn12` (stereo not drawn) [compound 244] the figure was 3.7; with `Cc1nc2nc(Cl)c(-c3ccccc3Cl)c(N3CCC(O)C3)n2n1` (stereo not drawn) [compound 245], 0.75.
The compound `Cc1nc2nc(Cl)c(-c3c(F)cccc3Cl)c(N3CCOCC3)n2n1` [compound 246] came in with a logP of 2.48.
Compound `CCCCN(CC)c1c(-c2ccccc2Cl)c(Cl)nc2nc(C)nn12` [compound 247] gave a lipophilicity (logP) of 4.18.
Still for that read-out and setting: for `Cc1nc2nc(Cl)c(-c3c(F)cccc3Cl)c(NCC(C)C)n2n1` [compound 248] the value was 3.14; for `Cc1nc2nc(Cl)c(-c3c(F)cccc3Cl)c(NCC(C)(C)C)n2n1` [compound 249], 3.59; for `C=C(C)CNc1c(-c2c(F)cccc2Cl)c(Cl)nc2nc(C)nn12` [compound 250], 2.8.
`Cc1nc2nc(Cl)c(-c3c(F)cccc3Cl)c(N3CCCC3)n2n1` [compound 251]: the logP is reported as 2.95.
Still for that read-out and setting: with `CCN(CC)c1c(-c2c(F)cccc2Cl)c(Cl)nc2nc(C)nn12` [compound 252] the figure was 3.33.
Still for that read-out and setting: for `Cc1nc2nc(Cl)c(-c3c(F)cccc3Cl)c(NCC#N)n2n1` [compound 253] the value was 2.11; for `Cc1nc2nc(Cl)c(-c3c(F)cccc3Cl)c(N3CCCCC3)n2n1` [compound 254], 3.55.
`Cc1nc2nc(Cl)c(-c3c(F)cccc3Cl)c(NC3CCCC3)n2n1` [compound 255] yielded a logP of 3.29.
The same measure, in the same setting: for `Cc1nc2nc(Cl)c(-c3c(F)cccc3Cl)c(NC(C)C)n2n1` [compound 256] the value was 2.77.
Same read-out and setting: for `COCCNc1c(-c2c(F)cccc2Cl)c(Cl)nc2nc(C)nn12` [compound 257] the value was 2.42; for `Cc1nc2nc(Cl)c(-c3c(F)cccc3Cl)c(NC3CC3)n2n1` [compound 258], 2.77.
